Source: ChEMBL document CHEMBL1131725, “Uridine phosphorylase inhibitors: chemical modification of benzyloxybenzyl-barbituric acid and its effects on urdpase inhibition” (Bioorg Med Chem Lett, 1999)

Experiment: Inhibitory effect on human liver uridine phosphorylase

SMILES | Ki [µM]
O=C1NC(=S)NC(=O)C1Cc1cccc(OCc2ccccc2)c1 | 3.7
O=C1NC(=O)C(Cc2cccc(OCc3ccccc3)c2)C(=O)N1 | 2.3
O=C1NC(=O)C(Cc2ccc(OCc3ccccc3)cc2)C(=O)N1 | 118
O=C1NC(=O)C(Cc2ccccc2OCc2ccccc2)C(=O)N1 | 41.8
